Measurements: patent publication US20100242341A1, “CORROSION AND MICROBIAL CONTROL IN HYDROCARBONACEOUS COMPOSITIONS” (priority 2007, published 2010)

Tests used:
Assay type in all cases: cell-based
[1] = test system: Hormoconis resinae ATCC# 20495; assay: Microbial resistance of fuel, plate count
Procedure: (§1) Bacteria. Pseudomonas aeruginosa ATCC# 33988, Yeast: Yarrowia tropicalis ATCC# 48138, and Mold: Hormoconis resinae ATCC# 20495, are sub cultured in Bushnell-Haas broth, and used for the mixed inoculum. The organism concentrations in the mixed inoculum are as follows: Ps. aeruginosa-4.8×10^8 cfu/mL; Y. tropicalis-2.2×10^7 cfu/mL; H. resinae-6.3×10^7 cfu/mL
(§2) Testing is carried out in glass bottles with bakelite screw tops for four weeks. For each fuel sample, the aminoalcohol and then the biocide when present are added at the desired loadings to 130 mL of either diesel or biodiesel fuel with agitation for 5 min. Bushnell-Haas broth (24 mL) is added as the aqueous phase below the diesel fuel. One mL of the mixed inoculum is added. The samples are mixed weekly by turning the bottle upside down 5 times. The organism count listed for day 0 represents the initial organism populations detected in the water bottom after mixing the water bottom and the fuel.
(§3) Microbial survival is measured using the plate count method. Tryptic soy agar is used for Pseudomonas aeruginosa, and Sabouraud dextrose agar with 0.5 ug/ml gentamycin for Yarrowia tropicalis, and bacteriological grade agar 1.5%, with 0.01% potassium tellurite for Hormoconis resinae. Bacteria are incubated at 37° C. for 48 hours, and fungi at 25° C. for 5-7 days.

[2] = test system: Pseudomonas aeruginosa ATCC# 33988; assay: Microbial resistance of fuel, plate count
Procedure: as §1, §2, §3

[3] = test system: Yarrowia tropicalis ATCC# 48138; assay: Microbial resistance of fuel, plate count
Procedure: as §1, §2, §3

[4] = test system: mixed inoculum (Ps. aeruginosa, Y. tropicalis, H. resinae); assay: Microbial resistance of fuel, mixed inoculum (overall statements); settings: diesel fuel
Procedure: as §1, §2, §3

[5] = diesel, aminoalcohol 1500 ppm, Day 0
[6] = diesel, aminoalcohol 1500 ppm, Wk 1
[7] = diesel, aminoalcohol 1500 ppm, Wk 2
[8] = diesel, aminoalcohol 1500 ppm, Wk 3
[9] = diesel, aminoalcohol 1500 ppm, Wk 4
[10] = diesel, aminoalcohol 3000 ppm, Day 0
[11] = diesel, aminoalcohol 3000 ppm, Wk 1
[12] = diesel, aminoalcohol 3000 ppm, Wk 2
[13] = diesel, aminoalcohol 3000 ppm, Wk 3
[14] = diesel, aminoalcohol 3000 ppm, Wk 4
[15] = biodiesel, 3A40 1500 ppm, Week 1
[16] = biodiesel, 3A40 1500 ppm, Week 2
[17] = biodiesel, 3A40 1500 ppm, Week 3
[18] = biodiesel, 3A40 1500 ppm, Week 4
[19] = biodiesel, 3A40 3000 ppm, Week 1
[20] = biodiesel, 3A40 3000 ppm, Week 2
[21] = biodiesel, 3A40 3000 ppm, Week 3
[22] = biodiesel, 3A40 3000 ppm, Week 4

SMILES: CC(C)(N)CO [AMP, 2-Amino-2-methyl-1-propanol, reference compound]
- H. resinae count [1, 5]: 4.2E5
- H. resinae count [1, 6]: 3.0E5
- H. resinae count [1, 7]: 6.4E5
- H. resinae count [1, 8]: 7.4E5
- H. resinae count [1, 9]: 1.8E6
- H. resinae count [1, 10]: 4.2E5
- H. resinae count [1, 11]: 1.2E5
- H. resinae count [1, 12]: 4.5E5
- H. resinae count [1, 13]: 5.8E5
- H. resinae count [1, 14]: 3.3E6
- Ps. aeruginosa count [2, 5]: 1.4E6
- Ps. aeruginosa count [2, 6]: 8.7E5
- Ps. aeruginosa count [2, 7]: 2.3E6
- Ps. aeruginosa count [2, 8]: 4.4E6
- Ps. aeruginosa count [2, 9]: 1.2E7
- Ps. aeruginosa count [2, 10]: 1.4E6
- Ps. aeruginosa count [2, 11]: 2.2E6
- Ps. aeruginosa count [2, 12]: 4.0E6
- Ps. aeruginosa count [2, 13]: 6.0E6
- Ps. aeruginosa count [2, 14]: 4.2E7
- Y. tropicalis count [3, 5]: 3.3E5
- Y. tropicalis count [3, 6]: 1.3E5
- Y. tropicalis count [3, 7]: 7.2E5
- Y. tropicalis count [3, 8]: 1.3E6
- Y. tropicalis count [3, 9]: 7.0E6
- Y. tropicalis count [3, 10]: 3.3E5
- Y. tropicalis count [3, 11]: 9.0E4
- Y. tropicalis count [3, 12]: 2.3E5
- Y. tropicalis count [3, 13]: 5.2E5
- Y. tropicalis count [3, 14]: 4.3E6

SMILES: CCCCC(O)C(N)CC (centres unmarked) [Example 3A4O, 3-amino-4-octanol]
- H. resinae count [1, 15]: <1.0E2
- H. resinae count [1, 16]: <1.0E2
- H. resinae count [1, 17]: <1.0E2
- H. resinae count [1, 18]: <1.0E2
- H. resinae count [1, 19]: <1.0E2
- H. resinae count [1, 20]: <1.0E2
- H. resinae count [1, 21]: <1.0E2
- H. resinae count [1, 22]: <1.0E2
- H. resinae count [1, 5]: 4.2E5
- H. resinae count [1, 6]: 2.7E5
- H. resinae count [1, 7]: 3.8E5
- H. resinae count [1, 8]: 7.7E5
- H. resinae count [1, 9]: 4.4E6
- H. resinae count [1, 10]: 4.2E5
- H. resinae count [1, 11]: 3.5E5
- H. resinae count [1, 12]: 6.7E5
- H. resinae count [1, 13]: 8.2E5
- H. resinae count [1, 14]: 6.0E6
- Ps. aeruginosa count [2, 15]: <1.0E2
- Ps. aeruginosa count [2, 16]: <1.0E2
- Ps. aeruginosa count [2, 17]: <1.0E2
- Ps. aeruginosa count [2, 18]: <1.0E2
- Ps. aeruginosa count [2, 19]: <1.0E2
- Ps. aeruginosa count [2, 20]: <1.0E2
- Ps. aeruginosa count [2, 21]: <1.0E2
- Ps. aeruginosa count [2, 22]: <1.0E2
- synergy with biocide ([2]; diesel fuel, with BIT, against Ps. Aeruginosa (FIG. 3)): not significant
- Ps. aeruginosa count [2, 5]: 1.4E6
- Ps. aeruginosa count [2, 6]: 1.7E6
- Ps. aeruginosa count [2, 7]: 4.2E6
- Ps. aeruginosa count [2, 8]: 7.3E6
- Ps. aeruginosa count [2, 9]: 4.8E7
- Ps. aeruginosa count [2, 10]: 1.4E6
- Ps. aeruginosa count [2, 11]: 8.7E5
- Ps. aeruginosa count [2, 12]: 2.0E6
- Ps. aeruginosa count [2, 13]: 5.7E6
- Ps. aeruginosa count [2, 14]: 2.3E7
- Y. tropicalis count [3, 15]: <1.0E2
- Y. tropicalis count [3, 16]: <1.0E2
- Y. tropicalis count [3, 17]: <1.0E2
- Y. tropicalis count [3, 18]: <1.0E2
- Y. tropicalis count [3, 19]: <1.0E2
- Y. tropicalis count [3, 20]: <1.0E2
- Y. tropicalis count [3, 21]: <1.0E2
- Y. tropicalis count [3, 22]: <1.0E2
- synergy with biocide ([3]; diesel fuel, with BIT, Y. tropicalis): evident
- Y. tropicalis count [3, 5]: 3.3E5
- Y. tropicalis count [3, 6]: 1.1E5
- Y. tropicalis count [3, 7]: 8.0E5
- Y. tropicalis count [3, 8]: 2.2E6
- Y. tropicalis count [3, 9]: 8.3E6
- Y. tropicalis count [3, 10]: 3.3E5
- Y. tropicalis count [3, 11]: 2.0E5
- Y. tropicalis count [3, 12]: 6.3E5
- Y. tropicalis count [3, 13]: 3.0E6
- Y. tropicalis count [3, 14]: 1.2E7
- synergy with biocide ([4]; with FUELSAVER (FIG. 1)): particularly synergistic
- synergy with biocide ([4]; with Kathon (CMIT/MIT) (FIG. 2)): more evident early on in the testing and then appears to taper off with time
- synergy with biocide ([4]; with the three biocides evaluated): Synergy, however, is observed
